Data published in patent US10463669B2, “Composition for treating or preventing liver cancer” (Seoul National University R&DB Foundation, priority 2016, dated 2019).

Legend:
Assay type in all cases: cell-based, human
[1] = tested on: β-catenin and SetD1A binding to the TERT promoter in Huh7 cells; assay: Chromatin immunoprecipitation (ChIP) at the TERT promoter; details: HCC (Huh7) cells, with or without 300 μmol/L H2O2
Protocol: As it has been described before (Lim S O, et al. Gastroenterology. 2008; 135: 2128-40, 40 el-8.; Hoffmeyer K, et al. Science. 2012; 336: 1549-54.), several modified ChIP (chromatin immunoprecipitation) tests were carried out. In the presence or absence of a PI3K inhibitor, an AKT inhibitor, or a GSK3β inhibitor, Huh7 cells were cultured for 4 days with or without a treatment of 300 μmol/L H2O2. Under mild shaking for 20 minutes at room temperature, the cells were fixed by using 1% paraformaldehyde. After that, the cells were rinsed twice with ice-cold PBS; resuspended with 400 μL of micrococcal nuclease buffer (50 mmol/L TrisHCl [pH 8.0], 5 mmol/L CaC12, 100 μg/mL BSA, 10 mmol/L KCl, and protease inhibitor cocktail [Roche, Basel, Switzerland; 4693159001]); and disrupted with 2 mm-diameter zirconium beads (Watson); to have micrococcal nuclease digestion (New England Biolabs, Beverly, Mass., USA; M0247S). Chromatin (150 μg) was collected and diluted in a dilution buffer (0.1% NP-40, 2 mmol/L EDTA, 150 mmol/L NaCl, 20 mmol/L TrisHCl [pH 8.0], protease inhibitor cocktail [Roche]), and a phosphatase inhibitor cocktail [Calbiochem]), and then subjected to pre-clearing with 2 μg digested salmon sperm DNA, 10 μL preimmune serum (Santa Cruz Biotechnology; sc-2027), and Dynabeads Protein G (Life Technologies; 1004D) for 2 hours at 4° C. After the immunoprecipitation, 20 μL of Dynabeads Protein G were added thereto and the culture was continued for 2 hours. The Dynabeads were washed continuously for 10 minutes with TSE 1 (0.1% SDS, 1% Triton X-100, 2 mmol/L EDTA, 20 mmol/L TrisHCl, and 150 mmol/L NaCl), TSE II (0.1% SDS, 1% Triton X-100, 2 mmol/L EDTA, 20 mmol/L TrisHCl, and 500 mmol/L NaCl), and buffer III (0.25 mol/L LiCl, 1% NP-40, 1% deoxycholate, 1 mmol/L EDTA, and 10 mmol/L TrisHCl). After that, the beads were washed 3 times with TE buffer, and extraction was made by using 1% SDS and 0.1 mol/L NaHCO3. To have reverse formaldehyde cross-linking, the elution solution was heated overnight at 65° C. By using NucleoSpin DNA clean-up kit, DNA debris were purified. By using primers specific to the TERT promoter region, the PCR amplified product was quantified by qPCR (ABI 7300; Applied Biosystems, Foster City, Calif., USA). The PCR amplification was normalized against the TERT intron. The primer sequences are as follows: β-catenin interaction site for ChIP (forward primer: TCCCGGGTCCCCGGCCCA (SEQ ID NO:8); reverse primer: […] (SEQ ID NO:9)) and TERT intron for ChIP (forward primer: […] (SEQ ID NO:10); reverse primer: […] (SEQ ID NO:11)). For each of the β-catenin interaction site which has been recorded before, 20-22 bp were added. The antibodies that are used are as follows: rabbit polyclonal anti-β-catenin (1:200, Abcam, Cambridge, Mass., USA; ab6302), mouse monoclonal anti-RNA polymerase II (1:50, Covance, Princeton, N.J., USA; MMS-126R), and rabbit polyclonal anti-SETD1A (1:100, Novus Biologicals, Littleton, Colo., USA; NBP1-81513).
Inventors of the present invention made an investigation to see whether or not the increased chromatin accessibility in TERT promoter during TERT transcription is related with β-catenin. To do so, by using intrinsic β-catenin and an antibody against histone methyl transferase SetD1A which has been reported to promote the TERT transcription based on chromatin remodeling, chromatin immunoprecipitation was carried out. When a PI3K or AKT inhibitor is treated together for chromatin immunoprecipitation, β-catenin and SetD1A, which bind to the TERT promoter in HCC cells, were reduced even in the presence of H2O2 (FIGS. 3A and 3B). However, when the treatment is carried out also with a GSK3p inhibitor, increased binding of β-catenin and SetD1A was shown regardless of a treatment with H2O2 (FIG. 3C).

[2] = tested on: TERT expression in HCC cell lines (Huh7 and Hep3B); assay: TERT expression, quantitative real time-PCR and immunoblot; details: HCC cells treated simultaneously with NAC and H2O2
Protocol: Medium was exchanged every day, and the aforementioned cells were cultured for 4 days in 300 μmol/L hydrogen peroxide (H2O2) (Sigma Aldrich; H1009). In several experiments, the cells were treated for 1 hour with 5 mmol/L N-acetylcysteine (NAC) (Sigma Aldrich; A7250), 25 μmol/L idelalisib (LC Laboratoties, Woburn, Mass., USA; I-7447), 25 μmol/L perifosine (LC Laboratoties, Woburn, Mass., USA; P-6522), or 30 μmol/L GSK3β inhibitor (GSK3β inhibitor XI) (Santa Cruz; sc-204770) (31) before adding H2O2. Furthermore, sterilized distilled water (pH 7.0) was used as a negative control (i.e., mock treatment).
PCR was carried out by using TOPrealm qPCR 2×PreMIX (SYBR Green with high ROX) (Enzynomics, Daejeon, Korea; RT501M) and ABI Prism 7300 thermal cycler (Applied Biosystems, Foster City, Calif., USA). […] To examine the primer specificity, a dissociation step was additionally included.
Total 2×10^5 cells were boiled for 5 minutes in 2×SDS sample buffer (100 mmol/L TrisHCl [pH 6.8], 4% SDS, 0.2% bromophenol blue, 20% glycerol, and 200 mmol/L β-mercaptoethanol), and then subjected to SDS-PAGE and Western blotting. To detect the TERT, the cells were cultured in 2×SDS sample buffer for 15 minutes at 55° C. TERT-specific (1:300, Rockland Immunochemicals, Gilbertsville, Pa., USA; 600-401-252), AKT-specific (1:1000, Cell Signaling Technology; #9272), phospho-AKT-specific (1:2000, Cell Signaling Technology; #4060), GAPDH-specific (1:2000, Santa Cruz Biotechnology; sc-47724), or β-actin-specific (1:2000, Sigma-Aldrich, St. Louis, Mo., USA; A5441) antibody was diluted in 5% skim milk or bovine serum albumin with TBS-Tween 20, cultured overnight at 4° C., washed, and cultured with HRP-conjugated secondary antibody (1:1000, Abcam; ab131368, or ab131366). By using FUSION-SOLO imager (Vilber Lourmat, Marne La Vallee, France), a chemical fluorescence image was obtained.

[3] = tested on: telomere length in HCC cell lines (Huh7 and Hep3B); assay: Telomere length (Southern blot, immunoFISH, Flow FISH, quantitative PCR); details: HCC cells treated simultaneously with NAC and H2O2
Protocol: Volume of the hybridization buffer was adjusted to 100 μl per 10^5 cells. Next, each sample was cultured for 10 minutes in a water bath at 85° C. […] Total 15,000 to 20,000 nuclei were analyzed for the each separate culture. Telomere fluorescence intensity of the all nuclei at […] phase of the cell cycle was measured by using BD FACS Calibur flow cytometer (Becton Dickinson, Franklin Lakes, N.J., USA) in which CELLQUEST software is used. The established ImmunoFISH protocol (Plentz R R, et al., Hepatology. 2007; 45: 968-76) was used with slight modifications. The paraffin-embedded section was subjected to de-paraffinization using xylene, and then rehydrated using ethanol gradient. Antigen retrieval was carried out by boiling in 100 mmol/L sodium citrate (pH 6.0) for 10 minutes in a microwave. After permeation of proteinase K (15 μg/mL in PBS [pH 7.4]) for 20 minutes at 37° C., 8-oxo-dG-specific antibody (1:100, Abcam, Cambridge, Mass., USA; ab62623) was subjected to 1% BSA dilution in PBS 0.1% Triton X-100 and cultured overnight at room temperature. After washing, the slide was treated with Alexa 647 secondary antibody for 1 hour. […] After denaturation for 6 minutes at 90° C., the sample was hybridized for 2 hours at dark place. […] After washing, the slide was rinsed with PBS containing DAPI, and then sealed with a DAPI sealing agent (mounting medium) (Vector Laboratories, Burlingame, Calif., USA). Simultaneously, the inventors of the present invention carried out centromere staining as an internal control for telomere staining and 8-oxo-dG staining. […] For quantification of the telomere fluorescence intensity, centromere fluorescence intensity, and 8-oxo-dG fluorescence intensity, the same exposure time was employed. The telomere fluorescence level and 8-oxo-dG fluorescence level of tumor tissues were calculated by division of the fluorescence level in non-tumor tissues corresponding to 5 random fields. The image analysis was carried out by using Image-Pro plus 6.0 software (Media Cybernetics, Inc., Rockville, Md., USA). Telomere length was determined by using the non-radioactive chemical fluorescence TeloTAGGG telomere length assay (Roche; Cat. No. 12 209 136 001) according to the manual. Genomic DNA was separated from HCC cells using GeneJET Genomic DNA Purification Kit (Thermo Scientific; #K0721), and then 4 μg of the genomic DNA was digested for 16 hours at 37° C. with 20 units of […] digested DNA was subjected to 0.8% agarose gel electrophoresis, and then transferred to a positively charged nylon membrane using capillary transfer. The blotted DNA was hybridized for 16 hours at 42° C. with a digoxigenin (DIG)-labeled probe that is specific to the telomere repeat. After that, it was cultured for 30 minutes at room temperature with DIG-specific antibody conjugated to an alkaline phosphatase Based on quantitative PCR analysis using the genomic DNA extracted from cells, relative telomere repeat copy number (T) and single copy number (S) were determined, and the calculation was made like previous method in which T/S ratio is continuously modified (Cawthon R M. Telomere length measurement by a novel monochrome multiplex quantitative PCR method. Nucleic Acids Res. 2009; 37: e21).

SMILES	SetD1A binding to the TERT promoter [1]	β-catenin binding to the TERT promoter [1]	H2O2-induced increased TERT expression [2]	H2O2-induced increased telomere length [3]
O=C1NC(=O)C(c2cn(CCCO)c3ncccc23)=C1c1cnccn1 [GSK3β inhibitor XI]	increased	increased		
CC(=O)N[C@@H](CS)C(=O)O [NAC, N-acetylcysteine]			disappeared	disappeared
CCCCCCCCCCCCCCCCCCOP(=O)([O-])OC1CC[N+](C)(C)CC1 [perifosine]	reduced	reduced		
